Measurements: paper PMC9820166, “Salicylate Sodium Suppresses Monocyte Chemoattractant Protein-1 Production by Directly Inhibiting Phosphodiesterase 3B in TNF-α-Stimulated Adipocytes” (International Journal of Molecular Sciences, 2022)

Columns and labels:
[1] = test system: MCP-1 production in TNF-α-stimulated 3T3-L1 pre-adipocytes; test: Supernatant MCP-1 (ELISA) in TNF-α-stimulated 3T3-L1 pre-adipocytes; format: cell-based, mouse
Protocol: (§1) The adipocytes were pretreated with SAS at different concentrations (0–5 mM) for 1 h and then stimulated with mouse TNF-α (40 ng/mL) at 37 °C for 24 h. The MCP-1 level in supernatant (for 3T3-L1 adipocytes) or subnatant (for primary adipocytes) was determined by ELISA according to the manufacturer’s instruction. The concentration of MCP-1 was calculated from the standard curve.

[2] = test system: MCP-1 production in TNF-α-stimulated 3T3-L1 mature adipocytes; test: Supernatant MCP-1 (ELISA) in TNF-α-stimulated 3T3-L1 mature adipocytes; format: cell-based, mouse; details: SAS 0–5 mM pretreatment 1 h, TNF-α 40 ng/mL 24 h
Protocol: The 3T3-L1 pre-adipocytes were cultured and differentiated into mature adipocytes, as previously described, with slight modification. The cells were maintained in M1 medium (DMEM supplemented with 10% FBS, 1 mM sodium pyruvate, 4 mM glutamine and 1% penicillin-streptomycin solution) to reach confluence. Approximately 2 days later (termed day 0), the medium was replaced with M2 medium (M1 medium supplemented with 1.5 μg/mL insulin, 1 μM dexamethasone, 0.5 mM IBMX and 2 μM rosiglitazone). Two days later, the medium was then changed to M3 medium (M1 medium supplemented with 1.5 μg/mL insulin). Two days later, the medium was replaced with M2 for another 2 days. From day 6, the cells were maintained in M3 medium with a medium change every day. About 8–10 days later, a microscope could observe a lot of lipid droplets and the mature adipocytes were obtained.
as §1

[3] = test system: PKA; test: Intracellular PKA activity (PepTag assay) in TNF-α-stimulated 3T3-L1 pre-adipocytes; format: cell-based, mouse; details: SAS pretreatment 1 h, TNF-α 40 ng/mL 1 h
Protocol: The 3T3-L1 pre-adipocytes were pretreated with SAS for 1 h and then stimulated with TNF-α (40 ng/mL) for further 1 h. The cells were lysed by cold PKA extraction buffer [25 mM Tris-HCl (pH 7.4), 0.5 mM EDTA, 0.5 mM EGTA, 10 mM β-mercaptoethanol, 1 μg/mL leupetin, 1 μg/mL aprotinin and 0.5 mM PMSF] and centrifuged (5000× g) at 4 °C for 10 min. The supernatant was used immediately for PKA activity determination by using a PepTag assay for non-radioactive detection of PKA.

[4] = target: human PDE4B (Homo sapiens, UniProt Q07343); details: read-out: IC50 PDE4B activity
[5] = test system: high-fat diet obese C57BL/6N mice; test: Recruitment of labeled circulating monocytes into adipose tissue of obese mice; format: in vivo, mouse; details: 45 mg/kg/day subcutaneous for 4 days
Protocol: page 7: Figure S7. SAS impedes the recruitment of circulating monocytes into adipose tissue in vivo (n = 4). (A) The fluorescence intensity of monocytes in adipose tissue. Male C57BL/6N mice (18 g - 20 g) were fed with high-fat diet (HFD) for 18 weeks. The obtained obese mice (36 g - 40 g) with enough epididymal adipose tissues were subcutaneously injected with SAS (45 mg/kg/day) for 4 days. Circulating blood monocytes were labeled by intravenous injection of Fluoresbrite YG Carboxylate Microspheres. Three days later, the mice were euthanatized and adipose tissues around epididymis were collected, 1.5 g of adipose tissue was digested by collagenase I. The fluorescence value of digestive juice was read at λex 441 nm and λem 486 nm. **P < 0.01 vs. HFD alone. (B) The photograph of labeled monocytes in adipose tissues. The sectioned adipose tissue (about 0.5 g) for photograph by a laser confocal microscopy using a 20 × objective. Fluorescence-labeled monocytes were shown in green. SAS, salicylate sodium. (1 picture or pasted object on this page, not shown here)

[6] = test system: intracellular cAMP; test: Intracellular cAMP level (ELISA) in TNF-α-stimulated 3T3-L1 pre-adipocytes; format: cell-based, mouse; details: SAS pretreatment 1 h, TNF-α 40 ng/mL 1 h
Protocol: To determine the time-course change of the TNF-α-induced intracellular cAMP, the 3T3-L1 pre-adipocytes were pretreated with or without SAS (5 mM) for 1 h and then exposed to TNF-α (40 ng/mL) for different time. The cells were lysed, and the changes of intracellular cAMP within 4 h were measured by using a commercial cAMP ELISA kit. To determine the concentration-effect of SAS on intracellular cAMP, 3T3-L1 pre-adipocytes were pretreated with SAS for 1 h at the indicated concentrations and then exposed to TNF-α (40 ng/mL) for further 1 h. The cells were lysed, and the intracellular cAMP level was measured by using a commercial cAMP ELISA kit. The protein concentration of each sample was determined using BCA assay, and the cAMP level of each sample was calculated according to the below formula:cAMP level (pmol/mg protein) = cAMP concentration (pmol/mL)/protein concentration (mg/mL)

[7] = target: T1, human PDE3A (Homo sapiens, UniProt Q14432); test: PDE3A activity inhibition; format: biochemical
T1 construct: purchased Sino Biological Inc
Description: (§2) (Fremont, CA, USA). […] All other reagents were of analytical grade.

[8] = test system: p-p38; test: Western blot of p-p38 in TNF-α-stimulated 3T3-L1 pre-adipocytes; format: cell-based, mouse; details: TNF-α 40 ng/mL
Protocol: (§3) The 3T3-L1 pre-adipocytes ([…] per well in 6-well plates) were incubated with SAS for 1 h and then stimulated with mouse TNF-α (40 ng/mL) at 37 °C for indicated time. The total protein was extracted with the mammalian protein extraction kit. For western blot assay, equal amounts of protein samples (30 µg/lane) were separated by 10% sodium dodecyl sulphate-polyacrylamide gel electrophoresis (SDS-PAGE) and then transferred to PVDF membranes. Subsequently, the membranes were blocked with 5% non-fat milk powder in TBST (0.9 mM Tris, 9 mM Tris-HCl, 150 mM NaCl, 0.05% Tween-20) for 2 h at room temperature, and then incubated with various primary antibodies overnight at 4 °C. After being washed by TBST, the membranes were incubated with the corresponding secondary antibodies for 1 h at room temperature. After successive washes, the protein bands were detected using ECL luminescence reagent and photographed by the ChemiDoc XRS+ imaging system (Bio-Rad Technology, Hercules, California, America) or ChemiScope 6000 Exp (Clinx Science Instruments Co., Shanghai, China).

[9] = test system: MCP-1 mRNA stability; test: MCP-1 mRNA stability assay (actinomycin D); format: cell-based, mouse; details: SAS 5 mM, TNF-α 40 ng/mL 2 h then actinomycin D 5 ug/mL
Protocol: The mRNA stability assay was performed as described previously with modification. The 3T3-L1 pre-adipocytes were stimulated with TNF-α (40 ng/mL) for 2 h, and then treated with actinomycin D (5 ug/mL). SAS (5 mM) was added at different time points (0, 0.5, 2, 4 h). The total RNA were harvested, and the MCP-1 mRNA levels were measured by RT-qPCR analysis.

[10] = target: T2, recombinant human PDE3B (Homo sapiens, UniProt Q13370); test: PDE3B activity inhibition (PDE-Glo PDE assay kit); format: biochemical
T2 construct: purchased SignalChem Lifesciences Corporation
Description: as §2

[11] = test system: MCP-1 mRNA; test: MCP-1 mRNA level by RT-qPCR in TNF-α-stimulated 3T3-L1 pre-adipocytes; format: cell-based, mouse; details: SAS 0–5 mM pretreatment 1 h, TNF-α 40 ng/mL 4 h
Protocol: The adipocytes were pretreated with SAS at different concentrations (0–5 mM) for 1 h and then stimulated with mouse TNF-α (40 ng/mL) at 37 °C for 4 h. The total mRNA was isolated from 3T3-L1 pre-adipocytes by Trizol reagent according to the manufacturer’s instruction. Reverse transcription reactions were conducted by using M-MuLV first strand cDNA synthesis kit. The RT-qPCR analyses were performed on a BIOER Fluorescent Quantitative Detection System (Bioer Technology, Hangzhou, China). The procedure condition was as follows: 95 °C for 30 s, 95 °C for 5 s with 40 cycles, and 62 °C for 30 s. The comparative Ct method (2^−ΔΔCt) was used to analyze the relative intensities. The primer sequences for MCP-1 were as follows: 5′-[…]-3′ (forward) and 5′-[…]-3′ (reverse). The primer sequences for β-actin were as follows: 5′-[…]-3′ (forward) and 5′-[…]-3′ (reverse).

[12] = test system: MKP-1; test: Western blot of MKP-1 expression in TNF-α-stimulated 3T3-L1 pre-adipocytes; format: cell-based, mouse; details: 2 h after TNF-α stimulation
Protocol: as §3

[13] = test system: p-ERK; test: Western blot of p-ERK in TNF-α-stimulated 3T3-L1 pre-adipocytes; format: cell-based, mouse; details: TNF-α 40 ng/mL
Protocol: as §3

[14] = test system: MCP-1 production in TNF-α-stimulated mouse primary adipocytes; test: Subnatant MCP-1 (ELISA) in TNF-α-stimulated mouse primary adipocytes; format: cell-based; details: SAS 0–5 mM pretreatment 1 h, TNF-α 40 ng/mL 24 h
Protocol: The mouse primary adipocytes were isolated from normal lean male C57BL/6N mice, as described previously, with modification. In brief, the mice were anesthetized by an intraperitoneal injection of 2,2,2-tribromoethanol (200 mg/kg) and sacrificed via a dislocated neck. The epididymal fat pads were removed, minced and digested by collagenase I (2 mg/mL in DMEM supplemented with 20 mg/mL BSA) at 37 °C for 1 h. The digested tissue was filtered, and the filtrate was centrifuged at 200× g for 5 min. Remove and discard the underlying pellet (containing pre-adipocytes, fibroblasts, and erythrocytes) and media. Re-suspend the remaining fat layer in 10 mL DMEM and centrifuge at 200× g for 5 min. Repeat this step two additional times. The floating top layer containing primary differentiated mature adipocytes was collected and cultured in DMEM supplemented with 10% fetal bovine serum (FBS).
as §1

[15] = 200 μM pretreatment 1 h, TNF-α 40 ng/mL 24 h

Sequence of human PDE4B (Q07343 whole entry): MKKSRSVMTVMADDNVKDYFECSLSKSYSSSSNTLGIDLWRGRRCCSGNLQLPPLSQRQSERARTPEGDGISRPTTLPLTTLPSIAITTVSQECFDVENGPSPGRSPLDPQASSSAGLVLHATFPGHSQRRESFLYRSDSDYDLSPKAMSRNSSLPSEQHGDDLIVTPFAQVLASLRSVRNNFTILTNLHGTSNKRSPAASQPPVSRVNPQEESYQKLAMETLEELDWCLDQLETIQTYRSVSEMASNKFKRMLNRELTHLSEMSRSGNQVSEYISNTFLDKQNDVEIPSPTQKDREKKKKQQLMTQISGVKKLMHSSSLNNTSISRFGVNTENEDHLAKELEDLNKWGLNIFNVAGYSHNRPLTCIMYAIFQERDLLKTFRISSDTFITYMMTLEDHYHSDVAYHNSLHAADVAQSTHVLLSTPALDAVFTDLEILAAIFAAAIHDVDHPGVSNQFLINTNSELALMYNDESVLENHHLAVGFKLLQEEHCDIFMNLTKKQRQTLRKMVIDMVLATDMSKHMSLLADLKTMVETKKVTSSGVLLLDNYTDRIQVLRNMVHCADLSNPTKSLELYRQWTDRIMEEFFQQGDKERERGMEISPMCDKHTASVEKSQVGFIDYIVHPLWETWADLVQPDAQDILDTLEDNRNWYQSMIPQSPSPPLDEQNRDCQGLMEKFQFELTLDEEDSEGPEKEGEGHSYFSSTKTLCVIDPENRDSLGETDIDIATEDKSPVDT
T2 sequence (Q13370 whole entry): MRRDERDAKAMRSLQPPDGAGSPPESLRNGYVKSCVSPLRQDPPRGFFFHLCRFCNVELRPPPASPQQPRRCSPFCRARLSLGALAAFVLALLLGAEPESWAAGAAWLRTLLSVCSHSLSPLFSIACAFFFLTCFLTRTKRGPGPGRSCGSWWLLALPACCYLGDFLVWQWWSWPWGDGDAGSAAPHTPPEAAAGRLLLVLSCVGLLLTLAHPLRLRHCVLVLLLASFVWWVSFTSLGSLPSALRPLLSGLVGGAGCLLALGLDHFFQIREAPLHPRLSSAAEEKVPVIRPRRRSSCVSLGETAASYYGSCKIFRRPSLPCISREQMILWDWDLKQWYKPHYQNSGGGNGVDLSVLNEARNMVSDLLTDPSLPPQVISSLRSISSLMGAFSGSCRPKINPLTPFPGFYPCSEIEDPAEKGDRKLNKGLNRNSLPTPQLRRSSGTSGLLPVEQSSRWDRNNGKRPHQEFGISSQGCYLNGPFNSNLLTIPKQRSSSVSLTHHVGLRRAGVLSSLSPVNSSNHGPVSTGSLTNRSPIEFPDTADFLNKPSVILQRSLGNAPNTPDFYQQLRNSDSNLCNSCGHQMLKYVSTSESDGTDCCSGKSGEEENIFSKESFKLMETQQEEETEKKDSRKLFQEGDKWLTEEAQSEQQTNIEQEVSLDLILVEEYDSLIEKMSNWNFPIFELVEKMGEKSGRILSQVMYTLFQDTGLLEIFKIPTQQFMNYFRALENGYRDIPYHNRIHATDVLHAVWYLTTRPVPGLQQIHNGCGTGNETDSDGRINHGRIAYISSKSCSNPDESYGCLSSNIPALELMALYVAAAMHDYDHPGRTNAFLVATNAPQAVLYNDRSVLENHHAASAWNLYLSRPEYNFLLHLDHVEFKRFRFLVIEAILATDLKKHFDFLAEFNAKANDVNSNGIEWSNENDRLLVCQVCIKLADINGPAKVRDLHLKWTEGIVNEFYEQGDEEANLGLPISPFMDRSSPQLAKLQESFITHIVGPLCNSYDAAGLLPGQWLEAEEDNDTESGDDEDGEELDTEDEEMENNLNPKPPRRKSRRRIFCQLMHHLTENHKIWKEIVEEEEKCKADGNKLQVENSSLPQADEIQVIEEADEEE
T1 sequence (Q14432 whole entry): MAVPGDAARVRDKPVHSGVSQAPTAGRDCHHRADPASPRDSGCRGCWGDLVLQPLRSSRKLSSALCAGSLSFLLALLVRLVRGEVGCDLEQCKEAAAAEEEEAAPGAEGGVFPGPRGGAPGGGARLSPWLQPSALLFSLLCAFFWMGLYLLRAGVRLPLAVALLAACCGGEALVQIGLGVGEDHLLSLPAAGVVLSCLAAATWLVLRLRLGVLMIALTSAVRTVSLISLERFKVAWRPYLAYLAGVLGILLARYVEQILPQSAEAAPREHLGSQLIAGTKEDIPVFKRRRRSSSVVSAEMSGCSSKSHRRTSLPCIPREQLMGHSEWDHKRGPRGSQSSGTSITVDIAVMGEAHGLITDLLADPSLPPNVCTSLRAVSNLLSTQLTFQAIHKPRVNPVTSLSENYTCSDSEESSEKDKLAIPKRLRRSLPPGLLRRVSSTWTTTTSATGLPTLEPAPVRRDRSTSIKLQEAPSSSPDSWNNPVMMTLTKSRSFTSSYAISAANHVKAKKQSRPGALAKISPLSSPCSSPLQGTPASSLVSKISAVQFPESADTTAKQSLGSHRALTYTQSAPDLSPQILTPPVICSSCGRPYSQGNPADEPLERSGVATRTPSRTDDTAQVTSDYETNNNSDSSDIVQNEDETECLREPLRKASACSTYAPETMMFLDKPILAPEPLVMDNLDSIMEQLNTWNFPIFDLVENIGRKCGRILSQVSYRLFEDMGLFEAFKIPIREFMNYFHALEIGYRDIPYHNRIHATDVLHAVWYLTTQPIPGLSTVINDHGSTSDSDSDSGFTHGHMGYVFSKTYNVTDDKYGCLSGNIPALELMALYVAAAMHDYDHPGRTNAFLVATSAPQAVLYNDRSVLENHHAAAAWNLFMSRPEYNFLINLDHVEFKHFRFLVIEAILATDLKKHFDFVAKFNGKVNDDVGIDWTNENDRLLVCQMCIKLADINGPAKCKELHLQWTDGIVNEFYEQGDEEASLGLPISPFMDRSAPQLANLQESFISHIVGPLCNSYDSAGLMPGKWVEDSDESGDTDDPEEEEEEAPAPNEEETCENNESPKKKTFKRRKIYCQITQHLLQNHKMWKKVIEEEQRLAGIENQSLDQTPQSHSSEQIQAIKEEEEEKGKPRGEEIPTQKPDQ

NC(=O)c1ncn([C@@H]2O[C@H](CO)[C@@H](O)[C@H]2O)c1N [AICAR]
Effect on MCP-1 production ([1]; 100 μM pretreatment 1 h, TNF-α 40 ng/mL 24 h): did not decrease the MCP-1 production

c1cc(-c2cnn3cc(-c4ccc(OCCN5CCCCC5)cc4)cnc23)ccn1 [Compound C]
Effect of AMPK inhibitor on the MCP-1-lowering effect of SAS ([1]; co-treatment with SAS, TNF-α-stimulated): could not antagonize the effect of SAS

O=S(=O)(NCCNC/C=C/c1ccc(Br)cc1)c1cccc2cnccc12 [H89]
Effect of PKA antagonist on the MCP-1-lowering effect of SAS ([1]; 100 nM, with SAS, TNF-α-stimulated): abolished the effect of SAS on MCP-1

Nc1ncnc2c1ncn2[C@@H]1O[C@@H]2CO[P@@](O)(=S)O[C@H]2[C@H]1O [RP-cAMPS]
Effect of cAMP antagonist on the MCP-1-lowering effect of SAS ([1]; 100 μM, with SAS, TNF-α-stimulated): abolished the effect of SAS on MCP-1

O=C(O)c1ccccc1O [SAS, salicylate sodium]
Effect on MCP-1 production (supernatant) [2]: significantly decreased MCP-1 production
Effect on intracellular PKA activity [3]: elevated the intracellular PKA activity
IC50 [4]: 0.81 mM
Recruitment of circulating monocytes into adipose tissue [5]: markedly prevented the recruitment of circulating monocytes into the adipose tissue
Effect on TNF-α-caused reduction of intracellular cAMP [6]: could prevent this decrease in a concentration-dependent manner
IC50 [7]: 6 mM
Effect on p-p38 level [8]: concentration-dependently decrease the levels of p-ERK and p-p38
Effect on MCP-1 mRNA stability [9]: did not affect the mRNA stability of MCP-1
IC50 [10]: 13.8 mM
Effect on MCP-1 mRNA level [11]: concentration-dependently decreased the MCP-1 mRNA level
Effect on MKP-1 expression [12]: maintained the expression of MKP-1 at 2 h
Effect on MCP-1 production (supernatant) ([1]; 3T3-L1 pre-adipocytes, SAS 0–5 mM pretreatment 1 h, TNF-α 40 ng/mL 24 h): significantly decreased MCP-1 production
Effect of SAS on MCP-1 in IKKβ-deficient cells ([1]; IKKβ siRNA knockdown 3T3-L1 pre-adipocytes): did not impact the effect of SAS on MCP-1
Effect of SAS on MCP-1 in PDE3B-deficient cells ([1]; PDE3B siRNA knockdown 3T3-L1 pre-adipocytes vs scrambled siRNA): almost disappeared
Concentration that impedes MCP-1 expression in adipocytes ([1]; in vitro, adipocytes (Figure 2)): 1.25 to 5 mM
Effect on p-ERK level [13]: concentration-dependently decrease the levels of p-ERK and p-p38
Effect on MCP-1 production (subnatant) [14]: significantly decreased MCP-1 production

CN(C(=O)CCCOc1ccc2[nH]c(=O)ccc2c1)C1CCCCC1 [cilostamide]
Effect on MCP-1 production [1, 15]: suppressed the MCP-1 production

Cc1[nH]c(=O)c(C#N)cc1-c1ccncc1 [milrinone]
Effect on MCP-1 production [1, 15]: suppressed the MCP-1 production
